Data: ChEMBL document CHEMBL3991601, “The target landscape of clinical kinase drugs” (Science, 2017)
The source made the active and inactive calls.

What was measured:
[1] = molecular target: T1, Acyl-CoA dehydrogenase family member 11 (Homo sapiens, UniProt Q709F0)
T1 sequence (Q709F0 whole entry): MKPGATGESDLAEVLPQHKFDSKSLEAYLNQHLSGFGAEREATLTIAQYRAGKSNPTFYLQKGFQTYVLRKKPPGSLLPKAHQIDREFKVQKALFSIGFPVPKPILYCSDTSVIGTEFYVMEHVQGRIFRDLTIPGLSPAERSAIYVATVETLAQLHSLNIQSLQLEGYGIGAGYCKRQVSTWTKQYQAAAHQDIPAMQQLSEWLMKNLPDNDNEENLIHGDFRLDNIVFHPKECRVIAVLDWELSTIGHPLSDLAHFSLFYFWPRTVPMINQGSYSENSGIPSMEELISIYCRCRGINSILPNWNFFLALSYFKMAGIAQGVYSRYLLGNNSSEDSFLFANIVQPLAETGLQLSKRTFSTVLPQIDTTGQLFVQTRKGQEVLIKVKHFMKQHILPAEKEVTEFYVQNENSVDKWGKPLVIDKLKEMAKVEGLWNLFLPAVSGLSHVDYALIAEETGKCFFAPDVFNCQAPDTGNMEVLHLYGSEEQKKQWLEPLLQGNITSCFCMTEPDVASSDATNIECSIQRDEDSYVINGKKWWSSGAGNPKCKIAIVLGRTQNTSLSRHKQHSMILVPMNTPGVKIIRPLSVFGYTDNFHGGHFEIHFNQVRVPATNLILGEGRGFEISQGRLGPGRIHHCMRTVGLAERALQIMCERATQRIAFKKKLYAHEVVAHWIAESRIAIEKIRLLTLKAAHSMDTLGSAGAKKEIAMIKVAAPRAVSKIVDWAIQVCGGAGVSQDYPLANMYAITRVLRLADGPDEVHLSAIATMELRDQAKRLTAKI

[2] = molecular target: Mitogen-activated protein kinase 10 (Homo sapiens, UniProt P53779)
Sequence of Mitogen-activated protein kinase 10 (P53779 whole entry): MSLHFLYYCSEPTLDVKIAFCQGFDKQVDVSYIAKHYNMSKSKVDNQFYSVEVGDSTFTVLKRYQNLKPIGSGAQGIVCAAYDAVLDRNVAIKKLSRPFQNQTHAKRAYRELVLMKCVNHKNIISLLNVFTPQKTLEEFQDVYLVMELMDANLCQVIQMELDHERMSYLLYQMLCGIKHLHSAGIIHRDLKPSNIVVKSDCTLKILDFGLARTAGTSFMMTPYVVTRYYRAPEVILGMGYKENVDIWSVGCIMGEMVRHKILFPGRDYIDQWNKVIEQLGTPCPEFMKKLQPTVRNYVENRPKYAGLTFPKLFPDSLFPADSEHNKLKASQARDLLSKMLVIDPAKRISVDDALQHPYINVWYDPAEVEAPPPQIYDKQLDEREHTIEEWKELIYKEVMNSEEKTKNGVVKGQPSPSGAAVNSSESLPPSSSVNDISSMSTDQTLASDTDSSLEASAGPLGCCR

[3] = molecular target: Macrophage-stimulating protein receptor (Homo sapiens, UniProt Q04912)
Sequence of Macrophage-stimulating protein receptor (Q04912 25-304 limits assumed): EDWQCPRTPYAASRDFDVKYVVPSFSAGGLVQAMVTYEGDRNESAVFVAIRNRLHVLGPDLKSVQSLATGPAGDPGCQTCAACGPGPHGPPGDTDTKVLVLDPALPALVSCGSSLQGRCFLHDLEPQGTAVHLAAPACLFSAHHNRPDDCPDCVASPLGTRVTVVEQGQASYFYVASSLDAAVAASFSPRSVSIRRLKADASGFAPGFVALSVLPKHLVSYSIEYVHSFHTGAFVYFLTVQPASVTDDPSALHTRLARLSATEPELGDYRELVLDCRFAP
Sequence of Macrophage-stimulating protein receptor (Q04912 310-1400 limits assumed): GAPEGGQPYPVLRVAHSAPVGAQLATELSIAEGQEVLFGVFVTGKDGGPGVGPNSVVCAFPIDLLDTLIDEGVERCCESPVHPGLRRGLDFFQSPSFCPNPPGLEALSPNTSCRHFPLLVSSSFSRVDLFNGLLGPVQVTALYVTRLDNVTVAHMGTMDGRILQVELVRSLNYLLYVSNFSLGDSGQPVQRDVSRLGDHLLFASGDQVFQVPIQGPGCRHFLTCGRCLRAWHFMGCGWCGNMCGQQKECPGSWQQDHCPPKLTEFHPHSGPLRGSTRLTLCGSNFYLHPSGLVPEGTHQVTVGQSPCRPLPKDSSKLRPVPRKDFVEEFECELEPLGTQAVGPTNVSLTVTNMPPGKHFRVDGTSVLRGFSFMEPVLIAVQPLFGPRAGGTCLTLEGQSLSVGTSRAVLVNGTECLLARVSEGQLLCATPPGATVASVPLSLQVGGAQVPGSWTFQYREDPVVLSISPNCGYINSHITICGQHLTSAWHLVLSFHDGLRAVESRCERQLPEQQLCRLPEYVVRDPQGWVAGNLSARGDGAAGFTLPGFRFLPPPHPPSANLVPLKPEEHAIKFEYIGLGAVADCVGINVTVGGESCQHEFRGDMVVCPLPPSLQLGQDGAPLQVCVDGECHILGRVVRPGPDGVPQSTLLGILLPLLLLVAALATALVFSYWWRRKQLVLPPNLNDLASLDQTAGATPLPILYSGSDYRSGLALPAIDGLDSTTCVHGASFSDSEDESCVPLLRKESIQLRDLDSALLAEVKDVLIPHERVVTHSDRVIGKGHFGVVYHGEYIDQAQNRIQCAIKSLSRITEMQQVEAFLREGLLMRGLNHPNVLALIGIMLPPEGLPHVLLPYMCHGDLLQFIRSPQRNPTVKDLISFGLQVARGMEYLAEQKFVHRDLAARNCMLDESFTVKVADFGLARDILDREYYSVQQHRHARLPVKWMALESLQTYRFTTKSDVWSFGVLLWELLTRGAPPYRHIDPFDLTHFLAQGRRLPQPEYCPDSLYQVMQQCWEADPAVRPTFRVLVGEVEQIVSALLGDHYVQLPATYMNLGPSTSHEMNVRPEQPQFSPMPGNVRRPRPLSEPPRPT

[4] = molecular target: T2, RNA cytidine acetyltransferase (Homo sapiens, UniProt Q9H0A0)
T2 sequence (Q9H0A0 whole entry): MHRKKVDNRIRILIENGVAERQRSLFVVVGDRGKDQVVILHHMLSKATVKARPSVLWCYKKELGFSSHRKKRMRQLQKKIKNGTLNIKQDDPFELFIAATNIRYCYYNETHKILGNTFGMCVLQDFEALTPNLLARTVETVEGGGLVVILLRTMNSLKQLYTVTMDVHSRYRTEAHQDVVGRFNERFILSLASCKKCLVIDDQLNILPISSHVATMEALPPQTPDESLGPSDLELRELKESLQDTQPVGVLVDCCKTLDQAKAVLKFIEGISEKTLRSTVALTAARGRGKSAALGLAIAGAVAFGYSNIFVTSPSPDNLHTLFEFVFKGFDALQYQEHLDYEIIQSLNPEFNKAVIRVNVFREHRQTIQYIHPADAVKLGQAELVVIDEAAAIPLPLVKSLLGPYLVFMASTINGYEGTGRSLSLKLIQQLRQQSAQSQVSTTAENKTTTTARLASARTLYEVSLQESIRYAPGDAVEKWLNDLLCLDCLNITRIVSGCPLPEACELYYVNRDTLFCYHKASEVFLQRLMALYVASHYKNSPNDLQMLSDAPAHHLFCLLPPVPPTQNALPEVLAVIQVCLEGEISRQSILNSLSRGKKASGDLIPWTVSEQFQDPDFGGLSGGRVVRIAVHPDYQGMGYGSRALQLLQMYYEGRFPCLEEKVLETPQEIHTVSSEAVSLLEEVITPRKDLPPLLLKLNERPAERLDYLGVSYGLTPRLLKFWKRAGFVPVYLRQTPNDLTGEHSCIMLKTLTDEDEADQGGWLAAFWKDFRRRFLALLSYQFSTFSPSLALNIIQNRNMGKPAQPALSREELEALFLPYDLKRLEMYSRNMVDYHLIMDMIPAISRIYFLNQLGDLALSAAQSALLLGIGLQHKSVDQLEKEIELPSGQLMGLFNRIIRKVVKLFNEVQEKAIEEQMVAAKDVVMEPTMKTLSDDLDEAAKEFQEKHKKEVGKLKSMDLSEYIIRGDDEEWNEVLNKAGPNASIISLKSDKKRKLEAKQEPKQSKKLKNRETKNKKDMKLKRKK

[5] = molecular target: T3, Serine/threonine-protein kinase Nek3 (Homo sapiens, UniProt P51956)
T3 sequence (P51956 whole entry): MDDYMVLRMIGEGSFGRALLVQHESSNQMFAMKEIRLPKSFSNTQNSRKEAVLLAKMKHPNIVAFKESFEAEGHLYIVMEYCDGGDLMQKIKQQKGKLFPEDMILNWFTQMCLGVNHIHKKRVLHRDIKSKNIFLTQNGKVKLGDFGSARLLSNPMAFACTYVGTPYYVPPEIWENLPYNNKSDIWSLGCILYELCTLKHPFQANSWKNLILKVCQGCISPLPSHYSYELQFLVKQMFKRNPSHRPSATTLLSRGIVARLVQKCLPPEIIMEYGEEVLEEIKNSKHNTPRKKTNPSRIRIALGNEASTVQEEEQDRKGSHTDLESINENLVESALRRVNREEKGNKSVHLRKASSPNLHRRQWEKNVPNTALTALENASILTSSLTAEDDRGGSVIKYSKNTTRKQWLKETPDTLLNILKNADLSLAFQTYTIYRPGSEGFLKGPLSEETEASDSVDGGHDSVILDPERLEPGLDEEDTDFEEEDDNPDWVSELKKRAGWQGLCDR

[6] = molecular target: T4, Phosphatidylinositol 5-phosphate 4-kinase type-2 alpha (Homo sapiens, UniProt P48426)
T4 sequence (P48426 whole entry): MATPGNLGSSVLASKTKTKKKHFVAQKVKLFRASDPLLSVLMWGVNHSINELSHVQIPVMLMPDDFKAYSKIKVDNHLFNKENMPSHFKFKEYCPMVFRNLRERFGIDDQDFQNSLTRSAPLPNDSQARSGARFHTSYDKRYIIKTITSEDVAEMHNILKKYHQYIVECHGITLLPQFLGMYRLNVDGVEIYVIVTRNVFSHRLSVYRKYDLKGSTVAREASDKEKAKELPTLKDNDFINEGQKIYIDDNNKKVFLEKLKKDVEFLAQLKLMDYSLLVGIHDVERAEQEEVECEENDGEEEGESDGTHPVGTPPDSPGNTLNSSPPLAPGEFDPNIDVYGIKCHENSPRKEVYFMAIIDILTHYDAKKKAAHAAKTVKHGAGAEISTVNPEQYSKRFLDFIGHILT

Measured: Kd
Further: in the data inactive means no Kd found up to 30 µM.

CO[C@H]1C[C@@H]2CC[C@@H](C)[C@@](O)(O2)C(=O)C(=O)N2CCCC[C@H]2C(=O)O[C@H]([C@H](C)C[C@@H]2CC[C@@H](OC(=O)C(C)(CO)CO)[C@H](OC)C2)CC(=O)[C@H](C)/C=C(\C)[C@@H](O)[C@@H](OC)C(=O)[C@H](C)C[C@H](C)/C=C/C=C/C=C/1C [TEMSIROLIMUS]
inactive: [1] > 30 µM | [2] > 30 µM | [3] > 30 µM | [4] > 30 µM | [5] > 30 µM | [6] > 30 µM

COc1cc2c(Nc3ccc(Cl)c(Cl)c3F)ncnc2cc1OC[C@@H]1C[C@@H]2CN(C)C[C@@H]2C1 [TESEVATINIB]
inactive: [1] > 30 µM | [2] > 30 µM | [3] > 30 µM | [4] > 30 µM | [5] > 30 µM | [6] > 30 µM

O=C(Cc1ccc(-c2ccc(OCCN3CCOCC3)cc2)cn1)NCc1ccccc1 [TIRBANIBULIN]
inactive: [1] > 30 µM | [2] > 30 µM | [3] > 30 µM | [4] > 30 µM | [5] > 30 µM | [6] > 30 µM

Cc1cc(Nc2ncnc3ccc(NC4=NC(C)(C)CO4)cc23)ccc1Oc1ccn2ncnc2c1 [TUCATINIB]
inactive: [1] > 30 µM | [2] > 30 µM | [3] > 30 µM | [4] > 30 µM | [5] > 30 µM | [6] > 30 µM

C[C@@H](N)c1ccc(C(=O)Nc2ccnc3[nH]ccc23)cc1 [Y-39983]
inactive: [1] > 30 µM | [2] > 30 µM | [3] > 30 µM | [4] > 30 µM | [5] > 30 µM | [6] > 30 µM

CN1C/C=C/CCOc2cccc(c2)-c2ccnc(n2)Nc2cccc(c2)C1 [ZOTIRACICLIB]
inactive: [1] > 30 µM | [2] > 30 µM | [3] > 30 µM | [4] > 30 µM | [5] > 30 µM | [6] > 30 µM
